Literature values, collected in patent US4722394A, “Determining residual oil saturation by radioactively analyzing injected CO2 and base-generating tracer-providing solution” (Shell Oil Company, priority 1986, dated 1988).

distribution coefficient, Ki (ratio of concentration of tracer in the oil phase to that in the water phase): about 2
SMILES: O=C=O [CO2, carbon dioxide]
